Measurements taken from US10167262B2, “Herbicidal substituted 3-arylpyrazoles” (FMC CORPORATION, priority 2014, dated 2019).

Key:
Assay in all cases: Test E pre-/postemergence greenhouse test, plant response rating 0-100
Assay type in all cases: in vivo
[1] = tested on: barnyardgrass (Echinochloa crus-galli); conditions: Postemergence, scale 0 to 100
Excerpt: (§1) Seeds of plant species selected from corn (Zea mays), soybean (Glycine max), velvetleaf (Abutilon theophrasti), lambsquarters (Chenopodium album), wild poinsettia (Euphorbia heterophylla), palmer pigweed (Amaranthus palmeri), waterhemp (common waterhemp, Amaranthus rudis), surinam grass (Brachiaria decumbens), large (Lg) crabgrass (Digitaria sanguinalis), Brazilian crabgrass (Digitaria horizontalis), fall panicum (Panicum dichotomiflorum), giant foxtail (Setaria faberii), green foxtail (Setaria viridis), goosegrass (Eleusine indica), johnsongrass (Sorghum halepense), ragweed (common ragweed, Ambrosia elatior), barnyardgrass (Echinochloa crus-galli), sandbur (southern sandbur, Cenchrus echinatus), arrowleaf sida (Sida rhombifolia), Italian ryegrass (Lolium multiflorum), dayflower (Virginia (VA) dayflower, Commelina virginica), field bindweed (Convolvulus arvensis), morningglory (Ipomoea coccinea), nightshade (eastern black nightshade, Solanum ptycanthum), kochia (Kochia scoparia), yellow nutsedge (Cyperus esculentus), smartweed (ladysthumb smartweed, Polygonum persicaria), cocklebur (common cocklebur, Xanthium strumarium), and hairy beggarticks (Bidens pilosa), were planted into a silt loam soil and treated preemergence with test chemicals formulated in a non-phytotoxic solvent mixture which included a surfactant.
(§2) At the same time, plants from these crop and weed species and also waterhemp_RES1, (ALS & Triazine resistant common waterhemp, Amaranthus rudis), and waterhemp_RES2, (ALS & HPPD resistant common waterhemp, Amaranthus rudis) were planted in pots containing Redi-Earth® planting medium (Scotts Company, 14111 Scottslawn Road, Marysville, Ohio 43041) comprising spaghnum peat moss, vermiculite, wetting agent and starter nutrients were treated with postemergence applications of test chemicals formulated in the same manner. Plants ranged in height from 2 to 18 cm for postemergence treatments (1- to 4-leaf stage).
(§3) Treated plants and controls were maintained in a greenhouse for 14 to 21 days, after which time all species were compared to controls and visually evaluated. Plant response ratings, summarized in Table E, are based on a scale of 0 to 100 where 0 is no effect and 100 is complete control. A dash (-) response means no test result.

[2] = tested on: Brazilian crabgrass (Digitaria horizontalis); conditions: Postemergence, scale 0 to 100
Excerpt: as §1, §2, §3

[3] = tested on: soybean (Glycine max); conditions: Postemergence, scale 0 to 100
Excerpt: as §1, §2, §3

[4] = tested on: dayflower (Virginia (VA) dayflower, Commelina virginica); conditions: Postemergence, scale 0 to 100
Excerpt: as §1, §2, §3

[5] = tested on: Italian ryegrass (Lolium multiflorum); conditions: Postemergence, scale 0 to 100
Excerpt: as §1, §2, §3

[6] = tested on: corn (Zea mays); conditions: Postemergence, scale 0 to 100
Excerpt: as §1, §2, §3

[7] = tested on: sandbur (southern sandbur, Cenchrus echinatus); conditions: Postemergence, scale 0 to 100
Excerpt: as §1, §2, §3

[8] = tested on: waterhemp (common waterhemp, Amaranthus rudis); conditions: Postemergence, scale 0 to 100
Excerpt: as §1, §2, §3

[9] = tested on: wild poinsettia (Euphorbia heterophylla); conditions: Postemergence, scale 0 to 100
Excerpt: as §1, §2, §3

[10] = tested on: arrowleaf sida (Sida rhombifolia); conditions: Postemergence
Excerpt: as §1, §2, §3

[11] = tested on: palmer pigweed (Amaranthus palmeri); conditions: Postemergence, scale 0 to 100
Excerpt: as §1, §2, §3

ON=C(c1ccccc1)c1c[nH]nc1-c1cc(Cl)cc(Cl)c1 [Compound 50]
Plant response rating, Barnyardgrass ([1]; 31 g ai/ha): 0 | Plant response rating, Barnyardgrass ([1]; 62 g ai/ha): 0 | Plant response rating, Barnyardgrass ([1]; 125 g ai/ha): 0 | Plant response rating, Barnyardgrass ([1]; 250 g ai/ha): 0 | Plant response rating, Barnyardgrass ([1]; 500 g ai/ha): 10 | Plant response rating, Crabgrass, Brazil ([2]; 31 g ai/ha): 0 | Plant response rating, Crabgrass, Brazil ([2]; 62 g ai/ha): 0 | Plant response rating, Crabgrass, Brazil ([2]; 125 g ai/ha): 0 | Plant response rating, Crabgrass, Brazil ([2]; 250 g ai/ha): 0 | Plant response rating, Crabgrass, Brazil ([2]; 500 g ai/ha): 0 | Plant response rating, Soybean ([3]; 31 g ai/ha): 0 | Plant response rating, Soybean ([3]; 62 g ai/ha): 0 | Plant response rating, Soybean ([3]; 125 g ai/ha): 0 | Plant response rating, Soybean ([3]; 250 g ai/ha): 0 | Plant response rating, Soybean ([3]; 500 g ai/ha): 0 | Plant response rating, Dayflower, VA ([4]; 31 g ai/ha): 0 | Plant response rating, Dayflower, VA ([4]; 62 g ai/ha): 0 | Plant response rating, Dayflower, VA ([4]; 125 g ai/ha): 0 | Plant response rating, Dayflower, VA ([4]; 250 g ai/ha): 0 | Plant response rating, Dayflower, VA ([4]; 500 g ai/ha): 0 | Plant response rating, Ryegrass, Italian ([5]; 31 g ai/ha): 0 | Plant response rating, Ryegrass, Italian ([5]; 62 g ai/ha): 0 | Plant response rating, Ryegrass, Italian ([5]; 125 g ai/ha): 0 | Plant response rating, Ryegrass, Italian ([5]; 250 g ai/ha): 0 | Plant response rating, Ryegrass, Italian ([5]; 500 g ai/ha): 0 | Plant response rating, Corn ([6]; 31 g ai/ha): 0 | Plant response rating, Corn ([6]; 62 g ai/ha): 0 | Plant response rating, Corn ([6]; 125 g ai/ha): 0 | Plant response rating, Corn ([6]; 250 g ai/ha): 0 | Plant response rating, Corn ([6]; 500 g ai/ha): 0 | Plant response rating, Sandbur ([7]; 31 g ai/ha): 0 | Plant response rating, Sandbur ([7]; 62 g ai/ha): 0 | Plant response rating, Sandbur ([7]; 125 g ai/ha): 0 | Plant response rating, Sandbur ([7]; 250 g ai/ha): 0 | Plant response rating, Sandbur ([7]; 500 g ai/ha): 0 | Plant response rating, Waterhemp ([8]; 31 g ai/ha): 80 | Plant response rating, Waterhemp ([8]; 125 g ai/ha): 90 | Plant response rating, Waterhemp ([8]; 250 g ai/ha): 100 | Plant response rating, Waterhemp ([8]; 500 g ai/ha): 100 | Plant response rating, Poinsettia, Wild ([9]; 31 g ai/ha): 0 | Plant response rating, Poinsettia, Wild ([9]; 62 g ai/ha): 0 | Plant response rating, Poinsettia, Wild ([9]; 125 g ai/ha): 0 | Plant response rating, Poinsettia, Wild ([9]; 250 g ai/ha): 20 | Plant response rating, Poinsettia, Wild ([9]; 500 g ai/ha): 30 | Plant response rating, Arrowleaf Sida ([10]; 31 g ai/ha, scale 0 to 100): 50 | Plant response rating, Arrowleaf Sida ([10]; 62 g ai/ha, scale 0 to 100): 50 | Plant response rating, Arrowleaf Sida ([10]; 125 g ai/ha, scale 0 to 100): 60 | Plant response rating, Arrowleaf Sida ([10]; 250 g ai/ha, scale 0 to 100): 70 | Plant response rating, Arrowleaf Sida ([10]; 500 g ai/ha, scale 0 to 100 (0 no effect, 100 complete control)): 80 | Plant response rating, Pigweed, Palmer ([11]; 31 g ai/ha): 65 | Plant response rating, Pigweed, Palmer ([11]; 62 g ai/ha): 75 | Plant response rating, Pigweed, Palmer ([11]; 125 g ai/ha): 80 | Plant response rating, Pigweed, Palmer ([11]; 250 g ai/ha): 98 | Plant response rating, Pigweed, Palmer ([11]; 500 g ai/ha): 98

C=CCn1cc(C(=O)c2ccccc2)c(-c2cc(Cl)cc(Cl)c2)n1 [Compound 60]
Plant response rating, Barnyardgrass ([1]; 16 g ai/ha): 0 | Plant response rating, Barnyardgrass ([1]; 31 g ai/ha): 0 | Plant response rating, Barnyardgrass ([1]; 62 g ai/ha): 0 | Plant response rating, Barnyardgrass ([1]; 125 g ai/ha): 0 | Plant response rating, Barnyardgrass ([1]; 250 g ai/ha): 0 | Plant response rating, Crabgrass, Brazil ([2]; 16 g ai/ha): 0 | Plant response rating, Crabgrass, Brazil ([2]; 31 g ai/ha): 0 | Plant response rating, Crabgrass, Brazil ([2]; 62 g ai/ha): 0 | Plant response rating, Crabgrass, Brazil ([2]; 125 g ai/ha): 0 | Plant response rating, Crabgrass, Brazil ([2]; 250 g ai/ha): 0 | Plant response rating, Soybean ([3]; 31 g ai/ha): 0 | Plant response rating, Soybean ([3]; 62 g ai/ha): 0 | Plant response rating, Soybean ([3]; 125 g ai/ha): 0 | Plant response rating, Soybean ([3]; 250 g ai/ha): 0 | Plant response rating, Dayflower, VA ([4]; 16 g ai/ha): 0 | Plant response rating, Dayflower, VA ([4]; 31 g ai/ha): 0 | Plant response rating, Dayflower, VA ([4]; 62 g ai/ha): 0 | Plant response rating, Dayflower, VA ([4]; 125 g ai/ha): 0 | Plant response rating, Dayflower, VA ([4]; 250 g ai/ha): 0 | Plant response rating, Ryegrass, Italian ([5]; 31 g ai/ha): 0 | Plant response rating, Ryegrass, Italian ([5]; 62 g ai/ha): 0 | Plant response rating, Ryegrass, Italian ([5]; 125 g ai/ha): 0 | Plant response rating, Ryegrass, Italian ([5]; 250 g ai/ha): 0 | Plant response rating, Corn ([6]; 16 g ai/ha): 0 | Plant response rating, Corn ([6]; 31 g ai/ha): 0 | Plant response rating, Corn ([6]; 62 g ai/ha): 0 | Plant response rating, Corn ([6]; 125 g ai/ha): 0 | Plant response rating, Corn ([6]; 250 g ai/ha): 0 | Plant response rating, Sandbur ([7]; 31 g ai/ha): 0 | Plant response rating, Sandbur ([7]; 62 g ai/ha): 0 | Plant response rating, Sandbur ([7]; 125 g ai/ha): 0 | Plant response rating, Sandbur ([7]; 250 g ai/ha): 0 | Plant response rating, Waterhemp ([8]; 31 g ai/ha): 20 | Plant response rating, Waterhemp ([8]; 62 g ai/ha): 25 | Plant response rating, Waterhemp ([8]; 125 g ai/ha): 25 | Plant response rating, Waterhemp ([8]; 250 g ai/ha): 30 | Plant response rating, Poinsettia, Wild ([9]; 31 g ai/ha): 0 | Plant response rating, Poinsettia, Wild ([9]; 62 g ai/ha): 0 | Plant response rating, Poinsettia, Wild ([9]; 125 g ai/ha): 0 | Plant response rating, Poinsettia, Wild ([9]; 250 g ai/ha): 0 | Plant response rating, Arrowleaf Sida ([10]; 16 g ai/ha, scale 0 to 100): 25 | Plant response rating, Arrowleaf Sida ([10]; 31 g ai/ha, scale 0 to 100): 35 | Plant response rating, Arrowleaf Sida ([10]; 62 g ai/ha, scale 0 to 100): 35 | Plant response rating, Arrowleaf Sida ([10]; 125 g ai/ha, scale 0 to 100): 45 | Plant response rating, Arrowleaf Sida ([10]; 250 g ai/ha, scale 0 to 100): 45 | Plant response rating, Pigweed, Palmer ([11]; 62 g ai/ha): 30 | Plant response rating, Pigweed, Palmer ([11]; 125 g ai/ha): 35 | Plant response rating, Pigweed, Palmer ([11]; 250 g ai/ha): 35
